Target: Casein kinase I isoform gamma-1 (Homo sapiens) (UniProt Q9HCP0)
Test: CSNK1G1 kinase inhibitors, dose response, biochemical, Z'-LYTE, FRET, protease-coupled, direct format (AID 1671246)
Details: Z'-LYTE FRET kinase activity, recombinant CSNK1G1

Casein kinase I isoform gamma-1 (Homo sapiens), sequence (Q9HCP0 whole entry, looked up, canonical isoform): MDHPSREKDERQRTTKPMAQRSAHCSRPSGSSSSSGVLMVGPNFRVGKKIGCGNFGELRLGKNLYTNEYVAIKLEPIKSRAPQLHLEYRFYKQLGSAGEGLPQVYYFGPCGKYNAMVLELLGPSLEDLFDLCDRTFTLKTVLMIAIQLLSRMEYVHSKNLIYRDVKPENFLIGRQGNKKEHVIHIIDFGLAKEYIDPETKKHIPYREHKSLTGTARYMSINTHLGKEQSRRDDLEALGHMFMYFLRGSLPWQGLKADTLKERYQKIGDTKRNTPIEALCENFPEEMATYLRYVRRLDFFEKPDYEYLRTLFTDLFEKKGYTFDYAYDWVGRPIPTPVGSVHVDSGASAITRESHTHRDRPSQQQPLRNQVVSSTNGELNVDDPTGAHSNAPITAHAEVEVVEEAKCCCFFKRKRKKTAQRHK

CN1C(=O)C2(Cc3cn(C45CC67SSC(CO)(C(=O)N6C4Nc4ccccc45)N(C)C7=O)c4ccccc34)SSC1(CO)C(=O)N2C (stereo unspecified)
IC50: 109 nM

Source: PubChem BioAssay AID1671246
